Measurements: patent US12265087B2, “Olfactory receptor as microglia marker and use thereof” (DAEGU GYEONGBUK INSTITUTE OF SCIENCE AND TECHNOLOGY, priority 2019, dated 2025)
Entries after “also recorded” stand apart in the source; their conditions may differ.

Columns and labels:
cerebral cortex = experiment: Cytokine mRNA in the cerebral cortex after IP injection (qRT-PCR); format: in vivo, mouse; details: 2-PF injection
Text: To measure mRNA, RNA was isolated from red blood cells, microglia, astrocytes, Hana3A cells or cerebral cortex cells using a MagNa lyser (Roche Molecular Diagnostics) with TRIzol reagent (Invitrogen, Carlsbad, Calif.) according to the manufacturer's protocols. Afterward, cDNA was synthesized through reverse transcription using isolated mRNA (using PrimeScript™ 1st str and cDNA Synthesis kit-#6110; Takara Bio Inc.). This process was quantitatively measured in real time through quantitative real-time-PCR (using a LightCycler® 480 SYBR Green I Master). The measurement values were calculated using a 2-ΔΔCt method.

Olfr110 [1] = molecular target: T1, Olfr110 (Mus musculus, UniProt A2RT31); experiment: Luciferase assay in Hana3A cells transfected with Olfr110; format: cell-based
T1 construct: Full-length odorant receptor genes from mouse and human genomic DNAs were amplified using appropriate primers; Lucy (N); Flag (N); Rho (N); expressed in transfected cells; host or cells: Hana3A cells, co-transfected with RTP1S, pCRELuc and pRL-SV40
T1 sequence (A2RT31 1-317): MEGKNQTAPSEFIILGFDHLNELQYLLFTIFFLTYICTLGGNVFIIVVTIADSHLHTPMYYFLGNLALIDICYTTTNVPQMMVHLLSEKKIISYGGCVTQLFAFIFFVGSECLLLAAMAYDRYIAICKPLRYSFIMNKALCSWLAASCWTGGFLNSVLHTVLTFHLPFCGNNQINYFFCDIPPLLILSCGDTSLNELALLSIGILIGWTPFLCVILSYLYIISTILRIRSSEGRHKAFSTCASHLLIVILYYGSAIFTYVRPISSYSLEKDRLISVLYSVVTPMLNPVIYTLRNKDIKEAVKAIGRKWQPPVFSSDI
Protocol: A Dual-Glo luciferase assay system (#E2940; Promega) was used for OR ligand screening. More specifically, Hana3A cells were seeded in white polystyrene 96-well plates (#353296; BD Biosciences) one day before transfection. pCRELuc (1 μg; #219076; Agilent Technologies), pRL-SV40 (1 μg; #E2231; Promega), RTP1S (1 μg), and OR (6 μg; or Mock) vectors were transfected for 24 hours in each plate. Analysis was performed using Lipofectamine 2000 (#11668-019; Thermo Fisher Scientific) according to the manufacturer's protocols. Transfected cells were stimulated at 37° C. for 4 hours with various concentrations of diluted odorants in a CD293 medium (#11913-019; Thermo Fisher Scientific). The activity of luciferase was normalized to that of Renilla luciferase. Luminescence was measured using a SpectraMax L microplate reader (Molecular Devices).

Olfr110 [2] = experiment: Immunostaining of Olfr110 expression after treatment; format: cell-based, mouse
Protocol: Subsequently, cells were washed in PBS, and fixed with 4% paraformaldehyde (#6148; Sigma Aldrich) for 5 minutes. The cells were then incubated in PBS containing 4% normal horse serum (#008-000-121; Jackson ImmunoResearch) and 0.1% TWEEN® 20 (#P9416; Sigma-Aldrich) at room temperature for 1 hour. Afterward, the cells were […] at 4° C. overnight with primary antibodies listed below. The antibodies are as follows: Olfr110 (rabbit-anti-Olfr110; 1:10,000; #ab177327; Abcam), Iba-1 (goat-anti-Iba-1; 1:1,000; #ab5076; Abcam), and GFAP (mouse-anti-GFAP; 1:1,000; #556330; BD Biosciences). Samples were incubated in a PBS solution containing 0.1% TWEEN® 20 (#P9416; Sigma-Aldrich) with secondary antibodies at room temperature for 1 hour. The secondary antibodies are as follows: Cy3-conjugated donkey anti-rabbit IgG (1:1,000; #711-165-152; Jackson ImmunoResearch), Alexa488-conjugated donkey anti-goat IgG (1:1,000; #705-545-147; Jackson ImmunoResearch), and Alexa488-conjugated donkey anti-mouse IgG (1:1,000; #715-545-150; Jackson ImmunoResearch). Afterward, the cells were mounted with a Vectashield fluorescent material containing DAPI (#H-1200; Vector Laboratories), and images were obtained using a confocal laser scanning microscope, LSM 700, and the ZEN software (Zeiss). […]

SMILES: CCCCCc1ccco1 [2-PF, 2-pentylfuran]
- expression level of inflammatory cytokines (Tnf, Il6, Il1b, Il10) (cerebral cortex): significantly increased
- mode of action at Olfr110 (Olfr110 [1]): agonist
- reactivity with Olfr110 (relative luciferase activity) (Olfr110 [1]; Hana3A cells): selective ligands; also recorded: showed the highest reactivity with Olfr110
- Olfr110 protein level (Olfr110 [2]): significantly increases
